Results published in the NIST ThermoML archive (doi:10.1021/acs.jced.7b00543).
Numbers after ± are expanded uncertainties.

Details: Capillary rise

C=C(F)C(F)(F)F [2,3,3,3-tetrafluoro-1-propene]
surface tension liquid-gas (242.21 K): 13.25 ± 0.21 mN/m
surface tension liquid-gas (244.21 K): 12.98 ± 0.21 mN/m
surface tension liquid-gas (245.22 K): 12.84 ± 0.21 mN/m
surface tension liquid-gas (248.08 K): 12.45 ± 0.21 mN/m
surface tension liquid-gas (250.1 K): 12.18 ± 0.21 mN/m
surface tension liquid-gas (252.25 K): 11.9 ± 0.21 mN/m
surface tension liquid-gas (255.34 K): 11.49 ± 0.21 mN/m
surface tension liquid-gas (258.24 K): 11.11 ± 0.21 mN/m
surface tension liquid-gas (260.34 K): 10.83 ± 0.2 mN/m
surface tension liquid-gas (263.12 K): 10.47 ± 0.2 mN/m
surface tension liquid-gas (265.13 K): 10.21 ± 0.2 mN/m
surface tension liquid-gas (268.11 K): 9.828 ± 0.2 mN/m
surface tension liquid-gas (270.15 K): 9.568 ± 0.2 mN/m
surface tension liquid-gas (275.55 K): 8.889 ± 0.2 mN/m
surface tension liquid-gas (278.58 K): 8.512 ± 0.2 mN/m
surface tension liquid-gas (280.24 K): 8.307 ± 0.2 mN/m
surface tension liquid-gas (283.24 K): 7.94 ± 0.2 mN/m
surface tension liquid-gas (285.32 K): 7.688 ± 0.2 mN/m
surface tension liquid-gas (288 K): 7.364 ± 0.2 mN/m
surface tension liquid-gas (290.08 K): 7.117 ± 0.2 mN/m
surface tension liquid-gas (296.04 K): 6.415 ± 0.2 mN/m
surface tension liquid-gas (300.01 K): 5.956 ± 0.2 mN/m
surface tension liquid-gas (305.09 K): 5.382 ± 0.2 mN/m
surface tension liquid-gas (310.09 K): 4.829 ± 0.2 mN/m
surface tension liquid-gas (312.28 K): 4.591 ± 0.2 mN/m
surface tension liquid-gas (315.2 K): 4.279 ± 0.2 mN/m
surface tension liquid-gas (317.48 K): 4.038 ± 0.2 mN/m
surface tension liquid-gas (320.48 K): 3.726 ± 0.2 mN/m
surface tension liquid-gas (322.47 K): 3.523 ± 0.2 mN/m
surface tension liquid-gas (325.1 K): 3.259 ± 0.2 mN/m
surface tension liquid-gas (327.3 K): 3.041 ± 0.2 mN/m
surface tension liquid-gas (330.27 K): 2.752 ± 0.2 mN/m
surface tension liquid-gas (332.21 K): 2.568 ± 0.2 mN/m
surface tension liquid-gas (335.26 K): 2.284 ± 0.2 mN/m
surface tension liquid-gas (337.53 K): 2.077 ± 0.2 mN/m
surface tension liquid-gas (340.11 K): 1.85 ± 0.2 mN/m
surface tension liquid-gas (342.54 K): 1.64 ± 0.2 mN/m
surface tension liquid-gas (345.13 K): 1.425 ± 0.2 mN/m
surface tension liquid-gas (347.36 K): 1.244 ± 0.2 mN/m
surface tension liquid-gas (350.21 K): 1.023 ± 0.2 mN/m
surface tension liquid-gas (355.63 K): 0.637 ± 0.2 mN/m
surface tension liquid-gas (360.23 K): 0.349 mN/m
surface tension liquid-gas (362.34 K): 0.234 mN/m
surface tension liquid-gas (365 K): 0.108 mN/m

CC(C)C [2-methylpropane]
surface tension liquid-gas (280.34 K): 11.99 ± 0.21 mN/m
surface tension liquid-gas (283.22 K): 11.79 ± 0.21 mN/m
surface tension liquid-gas (285.45 K): 11.48 ± 0.21 mN/m
surface tension liquid-gas (288.02 K): 11.17 ± 0.21 mN/m
surface tension liquid-gas (290.14 K): 10.99 ± 0.2 mN/m
surface tension liquid-gas (293.53 K): 10.6 ± 0.2 mN/m
surface tension liquid-gas (296.42 K): 10.23 ± 0.2 mN/m
surface tension liquid-gas (299.37 K): 9.829 ± 0.2 mN/m
surface tension liquid-gas (302.08 K): 9.595 ± 0.2 mN/m
surface tension liquid-gas (305.41 K): 9.223 ± 0.2 mN/m
surface tension liquid-gas (307.43 K): 9.03 ± 0.2 mN/m
surface tension liquid-gas (310.75 K): 8.607 ± 0.2 mN/m
surface tension liquid-gas (313.15 K): 8.314 ± 0.2 mN/m
surface tension liquid-gas (315.62 K): 7.999 ± 0.2 mN/m
surface tension liquid-gas (318.22 K): 7.683 ± 0.2 mN/m
surface tension liquid-gas (320.46 K): 7.584 ± 0.2 mN/m
surface tension liquid-gas (323.41 K): 7.172 ± 0.2 mN/m
surface tension liquid-gas (325.44 K): 7.013 ± 0.2 mN/m
surface tension liquid-gas (327.83 K): 6.731 ± 0.2 mN/m
surface tension liquid-gas (329.85 K): 6.538 ± 0.2 mN/m
surface tension liquid-gas (330.18 K): 6.476 ± 0.2 mN/m
surface tension liquid-gas (332.56 K): 6.214 ± 0.2 mN/m
surface tension liquid-gas (335.58 K): 5.925 ± 0.2 mN/m
surface tension liquid-gas (338.1 K): 5.686 ± 0.2 mN/m
surface tension liquid-gas (340.42 K): 5.479 ± 0.2 mN/m
surface tension liquid-gas (342.74 K): 5.22 ± 0.2 mN/m
surface tension liquid-gas (345.39 K): 4.972 ± 0.2 mN/m
surface tension liquid-gas (347.26 K): 4.847 ± 0.2 mN/m
surface tension liquid-gas (350.12 K): 4.526 ± 0.2 mN/m

F/C=C/C(F)(F)F [trans-1,3,3,3-tetrafluoropropene]
surface tension liquid-gas (242.01 K): 15.66 ± 0.21 mN/m
surface tension liquid-gas (245.14 K): 15.23 ± 0.21 mN/m
surface tension liquid-gas (248.08 K): 14.82 ± 0.21 mN/m
surface tension liquid-gas (250.11 K): 14.54 ± 0.21 mN/m
surface tension liquid-gas (255.11 K): 13.85 ± 0.21 mN/m
surface tension liquid-gas (260.07 K): 13.18 ± 0.21 mN/m
surface tension liquid-gas (265.12 K): 12.51 ± 0.21 mN/m
surface tension liquid-gas (268.98 K): 12 ± 0.21 mN/m
surface tension liquid-gas (271.51 K): 11.67 ± 0.21 mN/m
surface tension liquid-gas (275.65 K): 11.13 ± 0.21 mN/m
surface tension liquid-gas (280.14 K): 10.55 ± 0.2 mN/m
surface tension liquid-gas (285.03 K): 9.923 ± 0.2 mN/m
surface tension liquid-gas (288.19 K): 9.525 ± 0.2 mN/m
surface tension liquid-gas (290.19 K): 9.275 ± 0.2 mN/m
surface tension liquid-gas (293.1 K): 8.913 ± 0.2 mN/m
surface tension liquid-gas (295.07 K): 8.67 ± 0.2 mN/m
surface tension liquid-gas (300.07 K): 8.059 ± 0.2 mN/m
surface tension liquid-gas (305.06 K): 7.46 ± 0.2 mN/m
surface tension liquid-gas (310.06 K): 6.873 ± 0.2 mN/m
surface tension liquid-gas (315.05 K): 6.304 ± 0.2 mN/m
surface tension liquid-gas (320.05 K): 5.724 ± 0.2 mN/m
surface tension liquid-gas (325.03 K): 5.171 ± 0.2 mN/m
surface tension liquid-gas (330.05 K): 4.621 ± 0.2 mN/m
surface tension liquid-gas (335.09 K): 4.087 ± 0.2 mN/m
surface tension liquid-gas (340.08 K): 3.565 ± 0.2 mN/m
surface tension liquid-gas (345.07 K): 3.094 ± 0.2 mN/m
surface tension liquid-gas (350.07 K): 2.589 ± 0.2 mN/m
surface tension liquid-gas (355.03 K): 2.132 ± 0.2 mN/m
surface tension liquid-gas (360.08 K): 1.605 ± 0.2 mN/m
surface tension liquid-gas (365.09 K): 1.171 ± 0.2 mN/m
surface tension liquid-gas (370.07 K): 0.761 ± 0.2 mN/m
surface tension liquid-gas (375.14 K): 0.395 mN/m
surface tension liquid-gas (380.09 K): 0.109 mN/m
